{"source": "patent US6610741B1", "about": "“Skin cosmetic compositions containing a weak carboxylic acid and random copolymers of ethylene oxides and propylene oxides” (Unilever Home & Personal Care USA division of Conopco, Inc., priority 1999, dated 2003)", "tested_on": "contralateral nasolabial folds of subjects sensitive to glycolic acid", "assay": "in-vivo sting test (sting/burn propensity and forced choice)", "design": "species or system human", "conditions": "additive in Base Formula A + 8% glycolic acid, pH 3.8; result in words", "source_text": "Procedure for in-vivo sting test: This was a randomized, double blind study where each subject evaluated one test formulation and a control formulation or two test formulations on contralateral nasolabial folds. […] A maximum of 20 qualified subjects (minimum of 15) were utilized in each subsequent test. One paired comparison was made on each testing day, with a minimum of 3 days between sting testing throughout the study. Subjects underwent a 15 second Ivory soap wash regime immediately prior to product testing for enhancing sting response. […] Study personnel then applied one test formulation and one control or test formulation simultaneously to the appropriate left/right test site, and gently but thoroughly rubbed in. Subjects compared the stinging potential of the two formulations, over a 7.5 minute period using a self-assessment questionnaire.\nSting/Burn Propensity: The degree of stinging/burning felt on the left and right inner cheek and crease of the nose was evaluated using the following scale at the times indicated in Tables below:\n0-no stinging/burning; 1-very slight stinging/burning; 2-slight stinging/burning; 3- moderate stinging/burning; 4-moderately high stinging/burning; 5-high stinging/burning; 6-extreme stinging/burning. […]\nStatistical significance was determined at p≦0.1."}
{"compound": "C[C@]12CCC(=O)C=C1CC[C@@H]1[C@@H]2[C@@H](O)C[C@@]2(C)[C@H]1CC[C@]2(O)C(=O)CO", "note": "[hydrocortisone]", "values": [{"measurement": "effect of additive on sting of Base Formula A containing 8% glycolic acid", "result": "neither hydrocortisone nor arabinogalactan reduced the sting"}]}
